US6342503B1, “1N-alkyl-n-arylpyrimidinamines and derivatives thereof” (DuPont Pharmaceuticals Company, priority 1993, dated 2002)
Counter-ions that a name gives are not always drawn. Like-named read-outs stand apart in the source and are kept apart here.

Legend:
[1] = target: T1, CRF receptor (Rattus norvegicus, UniProt P35353); assay: In vitro CRF receptor binding assay (competition with [125I] ovine CRF, rat cortex membranes); conditions: read-out: Inhibition Ki
T1 construct: 100 μl of membrane suspension as prepared above to give a total reaction volume of 300 μl; from tissue; host or cells: rat cerebral cortex membrane homogenate
T1 sequence (P35353 24-415): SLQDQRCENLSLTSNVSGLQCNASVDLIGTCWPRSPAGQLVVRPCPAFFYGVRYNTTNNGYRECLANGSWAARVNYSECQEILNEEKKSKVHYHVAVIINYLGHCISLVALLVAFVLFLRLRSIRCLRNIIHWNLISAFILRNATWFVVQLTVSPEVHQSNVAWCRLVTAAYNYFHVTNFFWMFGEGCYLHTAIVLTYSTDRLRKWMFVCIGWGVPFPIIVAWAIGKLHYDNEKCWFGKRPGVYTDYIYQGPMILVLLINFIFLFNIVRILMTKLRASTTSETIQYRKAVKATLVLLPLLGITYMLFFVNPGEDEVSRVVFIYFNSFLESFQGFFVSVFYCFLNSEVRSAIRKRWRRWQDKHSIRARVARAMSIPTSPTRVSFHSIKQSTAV
Description: In vitro Receptor Binding Assay
Tissue Preparation: Male Sprague Dawley rats (180-200 g) were sacrificed by decapitation and the cortex was dissected on ice, frozen whole in liquid nitrogen and stored at −70° C. until use. On the day of assay, frozen tissue was weighed and homogenized in 20 volumes of ice cold buffer containing 50 mM Tris, 10 mM MgCl2, 2 mM EGTA, pH 7.0 at 22° C. using a Polytron (Brinkmann Instruments, Westbury, N.Y.; setting 6) for 20 s. The homogenate was centrifuged at 48,000× g for 10 min at 4° C. The supernatant was discarded, and the pellet was re-homogenized in the same volume of buffer and centrifuged at 48,000× g for 10 min at 4° C. The resulting pellet was resuspended in the above buffer to a final concentration of 20-40 mg original wet weight/mL and used in the assays described below.
CRF Receptor Binding: Receptor binding assays were carried out essentially as described by E. B. De Souza, J. Neurosci. […]
All assays were carried out at equilibrium for 2 h at 22° C. as described by E. B. De Souza, J. Neurosci. […] The reaction was terminated by centrifugation of the tubes in a Beckman microfuge for 5 min at 12,000× g. Aliquots of the supernatant were collected to determine the “free” radioligand concentration. The remaining supernatant was aspirated and the pellets washed gently with ice-cold PBS plus 0.01% Triton X-100; centrifuged again and monitored for bound radioactivity as described above. […] This program has the distinct advantage of fitting the raw experimental data on an untransformed coordinate system where errors are most likely to be normally distributed and uncorrelated with the independent variable. […] The parameters for the affinity constants (KD) and receptor densities (Bmax) are also provided along with statistics on the general “fit” of the estimated parameters to the raw data.
Competition Curve Analysis
The resulting pellets were surface washed twice by centrifugation with 1 mL of ice-cold phosphate buffered saline and 0.01% Triton X-100; the supernatants discarded and the pellets monitored for radioactivity at approximately 80% efficiency. The level of non-specific binding was defined in the presence of […] unlabeled rat/humanCRF (r/hCRF). Data from competition curves were analyzed by the program LIGAND. […] Routinely, the data were analyzed using a one- and two-site model comparing the “goodness of fit” between the models in order to accurately determine the Ki. Statistical analyses provided by LIGAND allowed the determination of whether a single-site or multiple-site model should be used.
In Table 17; the Ki values were determined using the assay conditions described above.

| Compound | melting point [°C] | Ki [1] [nM] | Ki ([1]; competition with [125I] ovine CRF, 2 h at 22° C., Ki classes) [nM] |
| --- | --- | --- | --- |
| CCN(c1nc(C)cc(CN2CCN(c3ccccc3OC)CC2)n1)c1ccc(C(C)C)cc1Br (as salt: HCl) [compound 275] | 102 to 104 |  |  |
| CCN(c1nc(C)cc(CN2CCN(c3ccccn3)CC2)n1)c1ccc(C(C)C)cc1Br (as salt: HCl) [compound 280] | 117 to 119 |  |  |
| CCN(c1nc(C)cc(CN2CCN(c3ncccn3)CC2)n1)c1ccc(C(C)C)cc1Br (as salt: HCl) [compound 281] | 125 to 127 |  |  |
| CCN(c1nc(C)cc(C(=O)c2c[nH]c3ccccc23)n1)c1ccc(C(C)C)cc1Br (as salt: HCl) [compound 283] | 105 to 107 |  |  |
| Cc1ccc(N(C)c2nc(C)cc(C)n2)c(Br)c1 (as salt: hydrochloride) [compound 1, N-(2-bromo-4-methylphenyl)-N-methyl-4,6-dimethyl-2-pymidinamine] | 120 to 121 |  |  |
| COc1ccc(N(C)c2nc(C)cc(C)n2)c(OC)c1 (as salt: hydrochloride) [compound 2] | 112 to 113 |  |  |
| C=CCN(c1nc(C)cc(C)n1)c1ccccc1Br (as salt: hydrochloride) [compound 3] | 127 to 129 |  |  |
| Cc1cc(C)nc(N(C)c2ccc(C(C)C)cc2Br)n1 (as salt: hydrochloride) [compound 4, N-(2-bromo-4-(1-methylethyl)phenyl)-N-methyl-4,6-dimethyl-2-pymidinamine] | 163 to 164 |  |  |
| CCc1ccc(N(C)c2nc(C)cc(C)n2)c(Br)c1 (as salt: hydrochloride) [compound 9, N-(2-bromo-4-ethylphenyl)-N-methyl-4,6-dimethyl-2-pypimidinamine] | 126 to 127 |  |  |
| Cc1cc(C)nc(N(C)c2ccc(C(C)(C)C)cc2Br)n1 (as salt: hydrochloride) [compound 11] | 193 to 195 |  |  |
| C=CCN(c1nc(C)cc(N2CCOCC2)n1)c1ccc(C(C)C)cc1Br (as salt: hydrochloride) [compound 17] | 208 to 211 |  |  |
| CCCCc1ccc(N(CC)c2nc(C)cc(C)n2)c(Br)c1 (as salt: hydrochloride) [compound 19] | 124 to 126 |  |  |
| CCN(c1nc(C)cc(C)n1)c1ccc(C(C)C)cc1Br (as salt: hydrochloride) [compound 21, N-(2-bromo-4-(1-methylethyl)phenyl)-N-ethyl-4,6dimethyl-2-pyrimidinamine] | 151 to 153 |  |  |
| CCCCc1ccc(N(CC)c2nc(CC)cc(CC)n2)c(Br)c1 (as salt: hydrochloride) [compound 24] | 116 to 118 |  |  |
| Cc1cc(C)nc(N(CC2CC2)c2ccc(C(C)C)cc2Br)n1 (as salt: hydrochloride) [compound 33] | 146 to 148 |  |  |
| CCN(c1nccc(C)n1)c1ccc(C(C)C)cc1Br (as salt: hydrochloride) [compound 49, N-(2-Bromo-4-(1-methylethyl)phenyl)-N-ethyl-4-methyl-2-pymidinamine] | 145 to 147 |  |  |
| Cc1cc(C)nc(N(C)c2ccc(I)cc2)n1 (as salt: hydrochloride) [compound 52] | 175 to 177 |  |  |
| Cc1cc(C)nc(N(C)c2ccccc2I)n1 (as salt: hydrochloride) [compound 53] | 164 to 166 |  |  |
| CCN(c1cc(OC)nc(OC)n1)c1ccc(C(C)C)cc1Br (as salt: hydrochloride) [compound 130] | 104 to 106 |  |  |
| CCN(c1nc(C)nc(N2CCOCC2)n1)c1ccc(C(C)C)cc1Br (as salt: hydrochloride) [compound 134, N-[2-bromo-4-(1-methylethyl)phenyl]-N-ethyl-4-methyl-6-(4-morpholinyl)-1,3,5-triazin-2-amine] | 59 to 63 |  |  |
| CCN(c1nc(C)cc(NN)n1)c1ccc(C(C)C)cc1Br (as salt: hydrochloride) [compound 146] | 117 to 121 |  |  |

| Compound | melting point [°C] | Ki [1] [nM] | Ki ([1]; competition with [125I] ovine CRF, 2 h at 22° C., Ki classes) [nM] |
| --- | --- | --- | --- |
| CCN(c1nc(C)cc(OCCN(C)C)n1)c1ccc(C(C)C)cc1Br (as salt: hydrochloride) [compound 161] | 143 to 146 |  |  |
| CCN(c1nc(C)cc(C)n1)c1ccc(C(C)C)cc1SC (as salt: hydrochloride) [compound 170, N-(2-methylthio-4-(1-methylethyl)phenyl)-N-ethyl-4,6dimethyl-2-pyrimidinamine] | 141 to 142 |  |  |
| Cc1cc(C)nc(N2CCCSc3cc(C(C)C)ccc32)n1 (as salt: hydrochloride) [compound 173] | 157 to 159 |  |  |
| CCSc1cc(C(C)C)ccc1N(CC)c1nc(C)cc(C)n1 (as salt: hydrochloride) [compound 175, N-(2-ethylthio-4-(1-methylethyl)phenyl)-N-ethyl-4,6dimethyl-2-pyrimidinamine] | 128 to 130 |  |  |
| CCN(c1nc(C)cc(OC[C@@H]2CCCN2C)n1)c1ccc(C(C)C)cc1SC (as salt: hydrochloride) [compound 177, N-(2-methylthio4-(1-methylethyl)phenyl)-N-ethyl-4(S)-(N-methyl-2′-pyrrolidinomethoxy)-6-methyl-2-pyrimidinamine] | 101 to 103 |  |  |
| CCc1ccc(N(CC)c2nc(C)cc(C)n2)c(SC)c1 (as salt: hydrochloride) [compound 182, N-(4-ethyl-2-methylthiophenyl)-N-ethyl-4,6-dimethyl-2-pyrimidinamine] | 140 to 141 |  |  |
| CCN(c1nc(C)nc(OCc2ccccc2)n1)c1ccc(C(C)C)cc1Br (as salt: hydrochloride) [compound 242, N-[2-bromo-4(1-methylethyl)phenyl]-N-ethyl-4-methyl-6-benzyloxy-1,3,5 triazin-2-amine] | 89 to 90 |  |  |
| Cc1cc(C)c2c(C#N)cn(-c3ccc(C(C)C)cc3Br)c2n1 [Example 254] | 105.8 | < 500 |  |
| Cc1cc(Cl)c2c(C#N)cn(-c3ccc(C(C)C)cc3Br)c2n1 [Example 255] | 179.2 | 501 to 2000 |  |
| Cc1cc(Cl)nc2c1c(C#N)cn2-c1ccc(C(C)C)cc1Br [Example 262] | 123.8 | < 500 |  |
| Cc1cc(Cl)c2c(C#N)cn(-c3ccc(C(C)C)cc3Br)c2n1 [Synth. Ex. 74, 1-(2-Bromo-4-isopropylphenyl)-4-chloro-3-cyano-6-methyl-7-azaindole] | 123.3 |  |  |
| CCN(c1nc(C)cc(C)n1)c1ccccc1Br [compound 5] | 94 to 95 | 501 to 2000 |  |
| Cc1ccc(N(C)c2nc(C)cc(N3CCOCC3)n2)c(Br)c1 [compound 6] | 40 to 42 | 501 to 2000 |  |
| CCN(c1nc(C)cc(C)n1)c1ccc(OC)cc1OC [compound 7] | 120 to 121 | < 500 |  |
| COc1cc(OC)c(N(C)c2nc(C)cc(C)n2)c(OC)c1 [compound 14] | 145 to 146 | 501 to 2000 |  |
| CCN(c1nc(C)cc(C)n1)c1c(OC)cc(OC)cc1OC [compound 15] | 115 to 116 | < 500 |  |
| CCCCc1ccc(N(CCC)c2nc(C)cc(C)n2)c(Br)c1 [compound 20] | 49 to 50 | < 500 |  |
| CCN(c1nc(C)cc(N2CCN(C=O)CC2)n1)c1ccc(C(C)C)cc1Br [compound 25] | 61 to 63 | < 500 |  |
| CCN(c1nc(C)cc(C)n1)c1ccc(C(C)C)cc1[S+](C)[O-] (stereo not drawn) [compound 169, N-(2-methylsulfinyl-4-(1-methylethyl)phenyl)-N-ethyl-4,6-dimethyl-2-pyrimidinamine] | 144 to 146 |  |  |
| N-ethyl-N-(2-bromo-4-(2-methoxyethyl)phenyl)4-morpholino-6-methyl-2-pyrimidinamine [compound 29] |  |  | < 500 |
